# Target: EGFR (human) (UniProt P00533)
# Sequence (P00533 whole entry, looked up): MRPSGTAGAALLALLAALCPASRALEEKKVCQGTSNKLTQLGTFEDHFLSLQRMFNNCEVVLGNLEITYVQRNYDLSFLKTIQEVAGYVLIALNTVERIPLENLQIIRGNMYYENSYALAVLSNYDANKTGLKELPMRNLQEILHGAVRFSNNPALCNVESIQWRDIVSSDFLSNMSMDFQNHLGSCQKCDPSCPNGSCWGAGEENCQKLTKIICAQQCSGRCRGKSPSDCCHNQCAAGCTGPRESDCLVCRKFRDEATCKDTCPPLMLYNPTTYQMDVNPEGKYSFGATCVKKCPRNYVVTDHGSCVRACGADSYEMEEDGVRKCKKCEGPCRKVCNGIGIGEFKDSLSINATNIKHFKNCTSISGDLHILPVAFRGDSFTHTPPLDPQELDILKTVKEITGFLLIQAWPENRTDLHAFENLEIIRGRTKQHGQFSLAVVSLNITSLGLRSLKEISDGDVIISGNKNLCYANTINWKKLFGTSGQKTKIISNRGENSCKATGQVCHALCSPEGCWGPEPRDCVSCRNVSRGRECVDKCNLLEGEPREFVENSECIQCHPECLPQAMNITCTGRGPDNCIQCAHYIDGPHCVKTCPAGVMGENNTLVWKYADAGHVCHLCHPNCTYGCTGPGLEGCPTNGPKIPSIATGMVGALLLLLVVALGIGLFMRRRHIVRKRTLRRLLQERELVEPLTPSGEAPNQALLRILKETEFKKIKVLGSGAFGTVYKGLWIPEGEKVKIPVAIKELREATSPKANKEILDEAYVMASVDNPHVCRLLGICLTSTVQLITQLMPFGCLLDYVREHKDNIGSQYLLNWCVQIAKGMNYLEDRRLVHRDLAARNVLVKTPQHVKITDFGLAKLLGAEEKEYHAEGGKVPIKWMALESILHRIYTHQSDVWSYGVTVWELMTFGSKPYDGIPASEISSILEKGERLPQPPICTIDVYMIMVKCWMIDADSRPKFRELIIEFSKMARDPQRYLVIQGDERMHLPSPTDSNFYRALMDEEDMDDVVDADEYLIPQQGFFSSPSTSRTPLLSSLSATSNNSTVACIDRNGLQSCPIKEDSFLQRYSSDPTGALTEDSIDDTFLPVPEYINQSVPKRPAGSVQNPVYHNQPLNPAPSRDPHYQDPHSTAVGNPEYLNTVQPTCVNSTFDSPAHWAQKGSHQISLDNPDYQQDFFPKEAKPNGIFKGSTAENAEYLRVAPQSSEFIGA
row,IC50 [µM],SMILES
1,1 to 10,Nc1ncc(-c2cccc(CN[C@@H]3c4ccccc4C[C@@H]3O)c2)nc1C(=O)N[C@H]1CCCNC1
2,≥ 10,Nc1ncc(-c2cccc(CNC(=O)Nc3ccc(-c4ccccc4)cc3)c2)nc1C(=O)N[C@H]1CCCNC1
3,≥ 10,Nc1ncc(-c2cccc(C(=O)NCc3ccc(Cl)cc3)c2)nc1C(=O)N[C@H]1CCCNC1
4,1 to 10,Nc1ncc(-c2cccc(NC(=O)c3cnc4ccccc4c3)c2)nc1C(=O)N[C@H]1CCCNC1
5,1 to 10,Nc1ncc(-c2cccc(CNC(=O)c3cccs3)c2)nc1C(=O)N[C@H]1CCCNC1
6,1 to 10,Nc1ncc(-c2cccc(CNC(=O)c3ccc(F)cc3)c2)nc1C(=O)N[C@H]1CCCNC1
7,≥ 10,COc1ccc(CNC(=O)c2cccc(-c3cnc(N)c(C(=O)N[C@H]4CCCNC4)n3)c2)cc1

# Second part, the compound before the results:
row,SMILES,IC50 [µM]
1,CCNCCOc1cccc(-c2cnc(N)c(C(=O)N[C@H]3CCCNC3)n2)c1,1 to 10
2,Cc1ccc(CNC(=O)c2cccc(-c3cnc(N)c(C(=O)N[C@H]4CCCNC4)n3)c2)c(F)c1F,≥ 10
3,CN(C)c1ccc(CNC(=O)c2cccc(-c3cnc(N)c(C(=O)N[C@H]4CCCNC4)n3)c2)cc1,≥ 10
4,Nc1ncc(-c2cccc(NC(=O)Cc3ccc(F)cc3F)c2)nc1C(=O)N[C@H]1CCCNC1,0.05 to 1
5,Nc1ncc(-c2cccc(C(=O)NCc3ccc(Cl)cc3F)c2)nc1C(=O)N[C@H]1CCCNC1,≥ 10
6,Nc1ncc(-c2cccc(C(=O)NCc3ccc(OC(F)(F)F)cc3)c2)nc1C(=O)N[C@H]1CCCNC1,≥ 10

# Reference: the Kinase Knowledgebase extract (Sharma et al. 2016)
